For series [1], the system named is Mus musculus. Nature of the series: Inhibition of homologous recombinant repair in human SW1990 cells xenografted in BALB/c mouse assessed as reduction in olaparib-induced BRCA1 expression at 15 mg/kg, ip after 4 days by immunohistochemical analysis. The series is classed as functional, organism-based. The following applies: time 4.0 day. Background: Xenograft models place foreign cells or tissue in a host animal.

Series [2] deals with Mus musculus. The series is described as follows: Toxicity in BALB/c mouse xenografted with human SW1990 cells assessed as heart damage at 45 mg/kg, ip administered for 28 consecutive days by H and E staining based […] microscopic analysis. The series is classed as organism-based. The following applies: in vivo, 672 h, time 28 day.
The subject of series [3] is Mus musculus. The series is described as follows: Inhibition of homologous recombinant repair in human SW1990 cells xenografted in BALB/c mouse assessed as increase in HEX1M1 expression at 45 mg/kg, ip after 4 days by immunohistochemical analysis. The series is classed as functional, organism-based. Conditions: time 4.0 day.
For series [4], the system named is SW1990. The series is described as follows: Induction of cell cycle arrest in human SW1990 cells assessed as accumulation of cells at G2/M phase at 1 uM incubated for 4 days by propidium iodide staining based flow cytometry (reference value: 5.89%). The series is classed as functional. The following applies: time 4 day. (In flow cytometry, cells or beads pass a laser one at a time.)

Series [5] has as its target Poly [ADP-ribose] polymerase 1 (Homo sapiens, UniProt P09874). Nature of the series: Inhibition of PARP1 (unknown origin) incubated for 45 mins in presence of biotinylated-NAD+ by microplate reader analysis.
Series [6] relates to SW1990. Nature of the series: Induction of autophagy in human SW1990 cells xenografted in BALB/c mouse assessed as increase in beclin1 expression at 45 mg/kg, ip after 4 days by Western blot analysis. The series is classed as functional, organism-based. Conditions: time 4.0 day.
The subject of series [7] is SW1990. The series is described as follows: Induction of autophagy in human SW1990 cells xenografted in BALB/c mouse assessed as increase in LC3B expression at 45 mg/kg, ip after 4 days by Western blot analysis. It is filed as functional, organism-based. The following applies: time 4.0 day.
For series [8], the system named is SW1990. Nature of the series: Inhibition of homologous recombinant repair in human SW1990 cells assessed as reduction in BRCA1 expression at 1 to 2 uM after 4 days by Western blot analysis. It is filed as functional, cell-based. Conditions: dose 1-2 µM, time 4.0 day. (In general: In western blotting, separated proteins are transferred to a membrane and probed.)

The target of series [9] is Bromodomain-containing protein 3 (Homo sapiens, UniProt Q15059). Nature of the series: Inhibition of recombinant BRD3 BD1 (unknown origin) incubated for 120 mins by TR-FRET assay.
The subject of series [10] is SW1990. Nature of the series: Induction of autophagy in human SW1990 cells assessed as increase in ATG5 expression at 1 to 2 uM incubated for 4 days by immunofluorescence assay. It is filed as functional, cell-based. The following applies: dose 1-2 µM, time 4.0 day.
Series [11] deals with Poly [ADP-ribose] polymerase 2 (Homo sapiens, UniProt Q9UGN5). Nature of the series: Inhibition of recombinant PARP2 (unknown origin) incubated for 45 mins in presence of biotinylated-NAD+ by ELISA.
The subject of series [12] is SW1990. Nature of the series: Effect on cell cycle progression in human SW1990 cells assessed as reduction in CCND1 expression at 1 to 2 uM after 4 days by Western blot analysis. The series is classed as functional, cell-based. The following applies: dose 1-2 µM, time 4.0 day.
In series [13] the test system is SW1990. The series is described as follows: Induction of autophagy in human SW1990 cells xenografted in BALB/c mouse assessed as increase in LC3B expression at 45 mg/kg, ip after 4 days by Q-PCR analysis. Conditions: time 4.0 day. It is filed as functional, organism-based.
In series [14] the target is T1, Bromodomain-containing protein 1 (Homo sapiens, UniProt O95696).
T1 sequence (O95696 whole entry): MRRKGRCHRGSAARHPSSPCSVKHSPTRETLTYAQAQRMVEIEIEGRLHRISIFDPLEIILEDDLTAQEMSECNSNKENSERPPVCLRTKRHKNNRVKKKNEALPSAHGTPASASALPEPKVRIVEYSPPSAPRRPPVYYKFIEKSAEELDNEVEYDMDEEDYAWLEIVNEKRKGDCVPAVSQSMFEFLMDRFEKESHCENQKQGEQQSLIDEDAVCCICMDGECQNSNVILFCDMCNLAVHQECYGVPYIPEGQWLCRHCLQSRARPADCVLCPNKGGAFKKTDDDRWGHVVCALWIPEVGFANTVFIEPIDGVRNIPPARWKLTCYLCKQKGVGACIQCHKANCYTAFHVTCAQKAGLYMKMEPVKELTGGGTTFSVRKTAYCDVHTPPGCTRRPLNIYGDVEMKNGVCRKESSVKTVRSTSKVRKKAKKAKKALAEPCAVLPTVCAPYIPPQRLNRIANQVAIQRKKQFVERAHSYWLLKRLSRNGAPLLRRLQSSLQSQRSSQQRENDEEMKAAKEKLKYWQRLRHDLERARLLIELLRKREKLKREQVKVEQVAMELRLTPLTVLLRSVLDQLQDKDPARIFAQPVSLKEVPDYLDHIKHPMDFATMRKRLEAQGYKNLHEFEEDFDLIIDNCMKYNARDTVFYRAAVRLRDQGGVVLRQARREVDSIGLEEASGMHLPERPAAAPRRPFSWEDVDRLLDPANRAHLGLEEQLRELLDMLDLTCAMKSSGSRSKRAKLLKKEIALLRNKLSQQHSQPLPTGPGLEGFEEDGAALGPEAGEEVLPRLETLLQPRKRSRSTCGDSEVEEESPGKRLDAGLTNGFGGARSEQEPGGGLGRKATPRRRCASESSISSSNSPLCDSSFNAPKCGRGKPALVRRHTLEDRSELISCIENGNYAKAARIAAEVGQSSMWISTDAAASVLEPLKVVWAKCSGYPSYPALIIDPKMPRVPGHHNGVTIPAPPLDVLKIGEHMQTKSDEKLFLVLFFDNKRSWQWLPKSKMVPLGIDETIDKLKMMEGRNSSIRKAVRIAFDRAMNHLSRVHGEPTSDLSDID
The series is described as follows: Inhibition of recombinant BRD1 (unknown origin) incubated for 120 mins by TR-FRET assay.

Series [15] deals with SW1990. Nature of the series: Inhibition of homologous recombinant repair in human SW1990 cells assessed as reduction in Rad51 expression at 1 to 2 uM after 4 days by Western blot analysis. The series is classed as functional, cell-based. Conditions: dose 1-2 µM, time 4.0 day.
The test system of series [16] is SW1990. The series is described as follows: Induction of apoptosis in human SW1990 cells assessed as necrotic cells at 1 uM after 4 days in presence of 3 uM Olaparib by Annexin V-FITC and propidium iodide staining based flow cytometry (reference value: 1.89%). It is filed as functional. The following applies: time 4 day.
The test system of series [17] is Mus musculus. Nature of the series: In vivo inhibition of PARP1 expression in human […] cells xenografted in BALB/c mouse assessed as reversal of Olaparib-induced PARP1 accumulation at 15 mg/kg, ip administered for 28 consecutive days in presence of 45 mg/kg Olaparib by immunohistochemical analysis. The series is classed as functional, organism-based. The following applies: time 28.0 day.

The test system of series [18] is SW1990. The series is described as follows: Inhibition of homologous recombinant repair in human SW1990 cells assessed as reduction in Olaparib-induced Rad51 expression at 1 uM after 4 days in presence of Olaparib by Western blot analysis. The following applies: time 4.0 day. The series is classed as functional, cell-based.
In series [19] the test system is Mus musculus. Nature of the series: In vivo inhibition of BRD4 expression in human SW1900 cells xenografted in BALB/c mouse assessed as reversal of Olaparib-induced BRD4 accumulation at 15 mg/kg, ip administered for 28 consecutive days in presence of 45 mg/kg Olaparib by Western blot analysis. The series is classed as functional, organism-based. Conditions: time 28.0 day.

In series [20] the test system is SW1990. Nature of the series: Inhibition of homologous recombinant repair in human SW1990 cells assessed as increase in […] expression at 4 uM after 4 days by Western blot analysis. It is filed as functional, cell-based. The following applies: time 4.0 day.
Series [21] concerns Mus musculus. The series is described as follows: Toxicity in BALB/c mouse xenografted with human SW1990 cells assessed as effect on body weight at 15 mg/kg, ip administered for 28 consecutive days. The following applies: in vivo, 672 h, time 28 day. It is filed as organism-based.
Series [22] has as its system SW1990. The series is described as follows: Induction of autophagy in human SW1990 cells assessed as reduction in p62 expression at 4 uM incubated for 4 days by immunofluorescence assay. The series is classed as functional, cell-based. The following applies: time 4.0 day.

The values that follow come from ChEMBL document CHEMBL5053549, “Discovery of Potent and Novel Dual PARP/BRD4 Inhibitors for Efficient Treatment of Pancreatic Cancer” (J Med Chem, 2021).

Molecules are shown by their SMILES. The source made the active and inactive calls. No cut-off for these calls is given here.

The term IC50 denotes the point on the concentration scale where inhibition reaches its midpoint.

Bromodomain-containing protein 3, sequence (Q15059 whole entry): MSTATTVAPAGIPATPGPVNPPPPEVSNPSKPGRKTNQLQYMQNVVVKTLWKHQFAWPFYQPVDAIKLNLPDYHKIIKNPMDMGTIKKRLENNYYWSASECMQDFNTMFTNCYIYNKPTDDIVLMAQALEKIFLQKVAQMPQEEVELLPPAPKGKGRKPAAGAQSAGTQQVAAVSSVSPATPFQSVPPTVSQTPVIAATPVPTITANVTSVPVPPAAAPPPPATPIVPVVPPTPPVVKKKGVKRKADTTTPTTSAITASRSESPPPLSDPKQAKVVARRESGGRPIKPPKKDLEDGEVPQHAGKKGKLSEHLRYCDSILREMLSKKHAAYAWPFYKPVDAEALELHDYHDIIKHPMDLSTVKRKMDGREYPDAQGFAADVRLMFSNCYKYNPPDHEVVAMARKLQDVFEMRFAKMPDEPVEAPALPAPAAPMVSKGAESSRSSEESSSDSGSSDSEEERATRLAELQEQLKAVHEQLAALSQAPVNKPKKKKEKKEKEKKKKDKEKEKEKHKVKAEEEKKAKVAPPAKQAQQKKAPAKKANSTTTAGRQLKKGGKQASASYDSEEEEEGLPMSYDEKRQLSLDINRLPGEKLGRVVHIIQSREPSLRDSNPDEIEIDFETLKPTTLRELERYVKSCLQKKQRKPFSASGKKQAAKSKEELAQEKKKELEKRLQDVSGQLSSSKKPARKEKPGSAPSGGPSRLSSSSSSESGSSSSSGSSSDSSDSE
Poly [ADP-ribose] polymerase 2, sequence (Q9UGN5 whole entry): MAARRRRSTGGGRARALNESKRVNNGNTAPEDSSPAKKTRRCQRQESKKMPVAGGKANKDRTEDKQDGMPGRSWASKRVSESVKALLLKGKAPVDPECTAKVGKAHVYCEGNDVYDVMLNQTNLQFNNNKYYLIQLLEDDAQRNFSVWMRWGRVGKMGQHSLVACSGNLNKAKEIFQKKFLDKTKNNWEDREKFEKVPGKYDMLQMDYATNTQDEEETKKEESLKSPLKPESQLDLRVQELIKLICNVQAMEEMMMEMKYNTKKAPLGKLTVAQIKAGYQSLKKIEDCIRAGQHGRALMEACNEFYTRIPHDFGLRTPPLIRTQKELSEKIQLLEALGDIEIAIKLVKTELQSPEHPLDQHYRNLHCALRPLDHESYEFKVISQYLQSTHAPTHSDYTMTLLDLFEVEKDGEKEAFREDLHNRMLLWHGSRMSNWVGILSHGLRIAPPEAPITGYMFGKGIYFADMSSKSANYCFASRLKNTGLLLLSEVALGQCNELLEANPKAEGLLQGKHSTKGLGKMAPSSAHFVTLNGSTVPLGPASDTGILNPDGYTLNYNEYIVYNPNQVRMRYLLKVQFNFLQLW
Poly [ADP-ribose] polymerase 1, sequence (P09874 whole entry): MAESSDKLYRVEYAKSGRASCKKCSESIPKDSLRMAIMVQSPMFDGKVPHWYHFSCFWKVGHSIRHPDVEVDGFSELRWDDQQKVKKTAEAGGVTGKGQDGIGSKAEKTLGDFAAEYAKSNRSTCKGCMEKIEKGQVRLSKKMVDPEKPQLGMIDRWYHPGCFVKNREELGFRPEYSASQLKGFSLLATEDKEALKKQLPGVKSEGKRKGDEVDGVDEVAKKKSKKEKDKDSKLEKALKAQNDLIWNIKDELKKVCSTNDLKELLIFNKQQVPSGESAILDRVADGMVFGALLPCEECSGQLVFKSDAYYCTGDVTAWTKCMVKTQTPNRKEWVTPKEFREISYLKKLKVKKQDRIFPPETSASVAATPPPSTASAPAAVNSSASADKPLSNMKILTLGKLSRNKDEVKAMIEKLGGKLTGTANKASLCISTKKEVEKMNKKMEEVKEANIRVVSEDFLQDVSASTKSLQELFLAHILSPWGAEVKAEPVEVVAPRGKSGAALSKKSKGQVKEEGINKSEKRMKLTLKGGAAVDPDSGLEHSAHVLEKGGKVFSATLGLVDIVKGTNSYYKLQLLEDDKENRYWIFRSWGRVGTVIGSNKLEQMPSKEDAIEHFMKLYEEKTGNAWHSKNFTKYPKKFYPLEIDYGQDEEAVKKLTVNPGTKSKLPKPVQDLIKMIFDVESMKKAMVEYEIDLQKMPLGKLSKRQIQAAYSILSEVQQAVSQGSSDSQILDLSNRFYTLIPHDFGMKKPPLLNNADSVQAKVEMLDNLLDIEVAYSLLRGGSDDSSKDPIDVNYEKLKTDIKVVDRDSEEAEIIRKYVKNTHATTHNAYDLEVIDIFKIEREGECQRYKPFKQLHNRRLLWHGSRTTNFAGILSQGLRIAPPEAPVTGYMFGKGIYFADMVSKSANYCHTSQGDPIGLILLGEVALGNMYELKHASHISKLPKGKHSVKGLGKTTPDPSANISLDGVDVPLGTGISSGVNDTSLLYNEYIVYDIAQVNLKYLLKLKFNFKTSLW

Take `CC[C@@H]1C(=O)N(C)c2cnc(N(C)c3ccc(-c4nc5c(C(N)=O)cccc5[nH]4)cc3OC)nc2N1C1CCCC1`: the inhibition entry in series [1], in [3], in series [8] and in series [15] was “Active” each time. Besides, the Activity entry in series [2] is “Non-Toxic”; in series [4] it was 10.5%. In addition, the IC50 in series [5] worked out at 13 nM; in [9] it was 166 nM; in [11], 4.7 nM; in series [14], 36500 nM. For the same molecule, the result in series [6], in [7], in [10], in series [12] and in series [13] was Active.

Consider `Cc1sc2c(c1C)C(c1ccc(Cl)cc1)=N[C@@H](CC(=O)OC(C)(C)C)c1nnc(C)n1-2`, for which the Activity in series [16] is listed as 5.53%; in series [21], “Non-Toxic”. In addition, the result in series [17], in series [19] and in series [22] was Active. Besides, the inhibition entry in [18] and in [20] was “Active” in each case.
